Reference: patent US10383912B2, “Tunable pH-sensitive linker for controlled drug release” (Washington State University, priority 2014, dated 2019)

Columns and labels:
[1] = pH stability: half-lives for P—N bond hydrolysis of model linkers; type: physicochemical
From the text: The present disclosure provides a method of screening for conjugates that can deliver an agent at a specific pH. In one aspect, conjugates having formula (I) comprising various substituents neighboring the ionizable group and having varying length between the ionizable group and the phosphorus center could be screened to determine which conjugates will hydrolyze at pH 3.0, 3.5, 4.0, 4.5, 5.0, 5.5, 6.0, and 6.5. In another aspect, a specific conjugate can be screened to determine at which pH it will hydrolyze or which pH its rate of hydrolysis is the fastest. The hydrolysis of the conjugate can be monitored by nuclear magnetic resonance (NMR) (FIG. 6), HPLC, spectrophotometric methods, or mass spectrometry.
It was observed from studies on distance effects that proximity of a neighboring, but electronically isolated, functional group, can be used to alter the stability of a phorphoramidate bond.

[2] = Plasma stability of cleavable linkers; type: in vitro ADME
Method: When a conjugate is administered to a subject in vivo, its plasma stability is important. The present disclosure provides conjugates with the desired plasma stability. Plasma stability of cleavable linkers with the desired release profile are provided herein.

SMILES	½ Lives for P—N Bond Hydrolysis, pH 3 [1]	½ Lives for P—N Bond Hydrolysis, pH 5.5 ([1]; pH 5.5)	½ Lives for P—N Bond Hydrolysis, pH 6.5 [1]	½ Lives for P—N Bond Hydrolysis, pH 7.4 [1]	½ Lives for P—N Bond Hydrolysis, pH 4.5 [1]	also measured
CN(c1ccccc1)P(=O)(O)OCCCc1cccnc1 [Entry H11]	0.48 hr	9.6 hr	1.1 days	10 day days	–	–
O=P(O)(Nc1ccccc1)OCCc1cccnc1 [Entry H113]	4 days	8 days	2 days	16 days	20 days	½ Lives for P—N Bond Hydrolysis, pH 6.5 (result in words) [1]: Stable
CN(CCc1ccccc1)P(=O)(O)OCCc1ccccn1 [Entry H69]	–	–	–	–	–	½ Lives for P—N Bond Hydrolysis, pH 3 (result in words) [1]: Unstable; ½ Lives for P—N Bond Hydrolysis, pH 4.5 (result in words) [1]: Unstable; ½ Lives for P—N Bond Hydrolysis, pH 5.5 (result in words) ([1]; pH 5.5): Unstable; ½ Lives for P—N Bond Hydrolysis, pH 6.5 (result in words) [1]: Unstable; ½ Lives for P—N Bond Hydrolysis, pH 7.4 (result in words) [1]: Unstable
O=P(O)(NCCc1ccccc1)OCCc1ccccn1 [Entry H119]	–	0.13 hr	0.32 hr	2.1 hr	–	½ Lives for P—N Bond Hydrolysis, pH 3 (result in words) [1]: Unstable
O=P(O)(NCCc1ccccc1)OCCCc1cccnc1 [Entry H5]	1.9 hr	8 day days	–	90 day days	19.3 hr	½ Lives for P—N Bond Hydrolysis, pH 6.5 (result in words) [1]: Stable
CN(CCc1ccccc1)P(=O)(O)OCCc1cccnc1 [Entry H99]	0.39 hr	3.2 hr	9.6 hr	1.6 days	1.93 hr	–
O=P(O)(NCCc1ccccc1)OCCCc1ccccn1 [Entry H41]	2.1 hr	19.3 hr	24.1 hr	11 days	9.63 hr	–
CN(CCc1ccccc1)P(=O)(O)OCCCc1ccccc1 [Entry H133]	–	9.6 hr	–	–	–	½ Life for P—N Bond Hydrolysis, pH 5.5, second value in parentheses ([1]; pH 5.5, value in parentheses, meaning not explained): 1.9 hr
CN(CCc1ccccc1)P(=O)(O)OCCCc1ccccn1 [Entry H43]	0.21 hr	1.2 hr	3.85 hr	21.4 hr	–	½ Life for P—N Bond Hydrolysis, Plasma ([2]; Plasma (pH 7.38)): 19.3 h
CN(c1ccccc1)P(=O)(O)OCCc1ccccn1 [Entry H115]	–	–	–	–	–	½ Lives for P—N Bond Hydrolysis, pH 3 (result in words) [1]: Unstable; ½ Lives for P—N Bond Hydrolysis, pH 4.5 (result in words) [1]: Unstable; ½ Lives for P—N Bond Hydrolysis, pH 5.5 (result in words) ([1]; pH 5.5): Unstable; ½ Lives for P—N Bond Hydrolysis, pH 6.5 (result in words) [1]: Unstable; ½ Lives for P—N Bond Hydrolysis, pH 7.4 (result in words) [1]: Unstable
Cc1ccc(C(=O)NC(COP(=O)(O)N(C)CCc2ccccc2)C(=O)O)cc1 (stereo not drawn) [Entry H155]	–	3.98 min	9.63 min	1.93 hr	–	–
O=P(O)(NCCc1ccccc1)OCCc1cccnc1 [Entry H97]	2.8 hr	1.6 days	4 days	16 days	–	–
O=P(O)(Nc1ccccc1)OCCc1ccccn1 [Entry H85]	0.32 hr	0.96 hr	1.9 hr	9.6 hr	–	–
O=P(O)(Nc1ccccc1)OCCCc1cccnc1 [Entry H7]	1.6 day days	16 day days	8 days	27 day days	133 days	½ Lives for P—N Bond Hydrolysis, pH 4.5 (result in words) [1]: Stable; ½ Lives for P—N Bond Hydrolysis, pH 6.5 (result in words) [1]: STABLE
O=P(O)(Nc1ccccc1)OCCCc1ccccn1 [Entry H45]	1.6 day days	2.0 days	8 days	4 day days	8.9 day days	–
CN(CCc1ccccc1)P(=O)(O)OCCCc1cccnc1 [Entry H9]	0.48 hr	3.2 hr	19.3 hr	2.7 days	–	½ Life for P—N Bond Hydrolysis, Plasma ([2]; Plasma (pH 7.23)): 27.5 h
Cc1ccc(C(=O)NC(CCOP(=O)(O)N(C)CCc2ccccc2)C(=O)O)cc1 (stereo not drawn) [Entry H179]	–	9.62 hr	–	2 Days days	0.96 hr	–

More lines, main results first:

½ Lives for P—N Bond Hydrolysis, pH 3 [1]	½ Lives for P—N Bond Hydrolysis, pH 5.5 ([1]; pH 5.5)	½ Lives for P—N Bond Hydrolysis, pH 6.5 [1]	½ Lives for P—N Bond Hydrolysis, pH 7.4 [1]	½ Lives for P—N Bond Hydrolysis, pH 4.5 [1]	SMILES	also measured
0.64 hr	9.6 hr	19.3 hr	10 days	3.85 hr	CN(c1ccccc1)P(=O)(O)OCCc1cccnc1 [Entry H105]	–
12.8 min	19.25 hr	2.0 days	26.7 days	3.21 hr	Cc1ccc(C(=O)NC(COP(=O)(O)Nc2ccccc2)C(=O)O)cc1 (stereo not drawn) [Entry H159]	–
0.48 hr	2.1 hr	3.9 hr	1.3 days	–	CN(c1ccccc1)P(=O)(O)OCCCc1ccccn1 [Entry H135]	–
–	14.4 min	57.8 min	6.42 hr	–	CN(c1ccccc1)P(=O)(O)OCc1ccccc1C(=O)O [Entry I11]	–
–	38.5 min	1.93 hr	19.3 hr	5.25 min	Cc1ccc(C(=O)NC(COP(=O)(O)NCCc2ccccc2)C(=O)O)cc1 (stereo not drawn) [Entry H157]	–
–	16.5 min	38.5 min	6.42 hr	0.98 min	Cc1ccc(C(=O)NC(COP(=O)(O)N(C)c2ccccc2)C(=O)O)cc1 (stereo not drawn) [Entry H161]	–
